According to patent US11034702B2, “Thienoisoquinolines and their derivatives for the treatment of cancer” (VALORBEC, SOCIÉTÉ EN COMMANDITE, priority 2016, dated 2021):
Values belong to the compound of their own block, whether it stands above or below them.

How the values were obtained:
[1] = system: HeLa (cervical adenocarcinoma) cells; experiment: IC50 (viability) in HeLa cells; format: cell-based, human; conditions: for IC50: Homo sapiens, HeLa cells, cells printed in nM; for efficacy (effect on viability) in cancer cells vs. non-cancer cells: comparison of Table 3 IC50 values
Experimental: (§1) 19 variants with different structural modifications have been made. […] In particular, it is shown that C75 causes death in multiple cancer cells with IC50 values in the 100 nM range, including breast cancers (MCF7, BT549), lung cancer (A549), colorectal cancer (HCT116) in addition to HeLa cells (cervical cancer).

[2] = system: BT549 (breast ductal carcinoma) cells; experiment: IC50 (viability) in BT549 cells; format: cell-based; conditions: Homo sapiens, BT-549
Experimental: as §1

[3] = system: A549 (lung carcinoma) cells; experiment: IC50 (viability) in A549 cells; format: cell-based; conditions: Homo sapiens
Experimental: as §1

[4] = system: MCF-7 (mammary gland carcinoma) cells; experiment: IC50 (viability) in MCF-7 cells; format: cell-based; conditions: Homo sapiens, MCF7
Experimental: as §1

[5] = system: MCF-10A (mammary gland fibrocystic disease) non-cancer cells; experiment: IC50 (viability) in MCF-10A non-cancer cells; format: cell-based; conditions: Homo sapiens, MCF10A non-cancer cells
Experimental: as §1

[6] = system: HFF1 (fibroblast) non-cancer cells; experiment: IC50 (viability) in HFF1 non-cancer cells; format: cell-based; conditions: Homo sapiens; HFF-1 non-cancer cells
Experimental: as §1

HeLa cells = experiment: Mitotic spindle / centrosome phenotype in HeLa cells (tubulin and DAPI staining, live imaging); format: cell-based, human
Experimental: There were more rounded mitotic cells after C75 treatment in comparison to the control. FIG. 1B) is a line graph showing the percentage of HeLa and HFF1 cells in mitosis after treatment with various concentrations of C75 for 8 hours. The bars indicate standard deviation. FIG. 1C) is a series of images showing cells that were fixed and co-stained for tubulin (microtubules) and DAPI (DNA). Treatment of HeLa cells with 300 nM C75 caused the mitotic spindles to be disorganized, while they were not affected in HFF1 cells. […] The scale bar for the cells is 10 μm. FIG. 1D) is a cartoon schematic showing the key features of a metaphase cell.
(§2) FIG. 2A) is a line graph showing the percentage of HCT116 (p53−/−) cells, A549 cells, HeLa cells and H1299 cells in mitosis after treatment with various concentrations of C75 for one population doubling time. All of the cell lines show an increase in the proportion of mitotic cells after treatment with 200 nM C75. The bars indicate standard deviation. […] While the mitotic spindles were not dramatically altered by C75 in HFF1 cells, they were monopolar (as shown) or fragmented in the other cell types. […] The mitotic spindles were more strongly fragmented after C75 treatment in these cells vs. the cells in FIG. 2B). […] While mitotic spindles recovered bipolarity after removing nocodazole, they remained multipolar after removing C75. FIG. 2F) is a series of time-lapse images of a live HeLa cell expressing GFP:tubulin after treatment with C75 as shown in 2D) and 2E). The scale bar for all cells is 10 μm. FIG. 2G) is a schematic showing the putative target for C75. Healthy cells have two centrosomes that separate and form a bipolar spindle, while cancer cells have aberrant centrosomes that cluster to form ‘pseudo’ bipolar spindles, and C75 may target this process and their integrity.
FIG. 3A) is a line graph showing the percentage of mitotic HeLa or HFF1 cells treated with a range of paclitaxel (Taxol™; tubulin-targeting drug) concentrations+/−C75 as indicated. The bars indicate standard deviation. FIG. 3B) is a series of bar graphs showing the proportion of HCT116 cells that have monopolar spindles, bipolar spindles with aligned chromosomes, bipolar spindles with misaligned chromosomes and multipolar/fragmented spindles after treatments as shown. Treatments include DMSO (control), varying concentrations of paclitaxel and/or varying concentrations of C75 after 7 hours. While treatment of HCT116 cells with 2.5 nM paclitaxel caused a threshold of mitotic spindle phenotypes, adding increasing concentrations of C75 in combination with 2.5 nM paclitaxel caused the phenotypes to progressively worsen. FIG. 3C) is bar graph showing the average distance between centrosome fragments in HCT116 cells after treatments as shown. While centrosome fragments moved closer together with increased concentrations of paclitaxel, they moved further apart with increased concentrations of C75. […] FIG. 3E) is a line graph showing the percentage of mitotic HeLa or HFF1 cells treated with a range of nocodazole concentrations+/−C75 as indicated. The bars indicate standard deviation. FIG. 3F) is a series of images showing fixed HeLa cells after treatment with C75+/− nocodazole co-stained for tubulin, γ-tubulin and DNA (DAPI). […] Adding nocodazole to cells treated with 300 nM C75 caused mitotic spindle phenotypes to worsen and appear more similar to those after treatment with 600 nM C75. The scale bar for all cells is 10 μm. FIG. 3G) is a bar graph showing the percentage of phenotypes observed for metaphase HeLa cells treated with nocodazole or C75, or both for 20 minutes (n>15 per treatment).
Spindle fragmentation only occurred after extensive microtubule depolymerization in colchicine-treated cells, while the spindle poles fragmented prior to changes in microtubules after C75 treatment. The scale bar for all cells is 10 μm.
C75 was further tested and found to cause mitotic arrest in HeLa cells. […]

HCT116 cells = experiment: Mitotic spindle phenotype and centrosome fragment distance in HCT116 cells; format: cell-based; conditions: HCT116, paclitaxel alone
Experimental: as §2
FIG. 3A) is a line graph showing the percentage of mitotic HeLa or HFF1 cells treated with a range of paclitaxel (Taxol™; tubulin-targeting drug) concentrations+/−C75 as indicated. The bars indicate standard deviation. FIG. 3B) is a series of bar graphs showing the proportion of HCT116 cells that have monopolar spindles, bipolar spindles with aligned chromosomes, bipolar spindles with misaligned chromosomes and multipolar/fragmented spindles after treatments as shown. Treatments include DMSO (control), varying concentrations of paclitaxel and/or varying concentrations of C75 after 7 hours. While treatment of HCT116 cells with 2.5 nM paclitaxel caused a threshold of mitotic spindle phenotypes, adding increasing concentrations of C75 in combination with 2.5 nM paclitaxel caused the phenotypes to progressively worsen. FIG. 3C) is bar graph showing the average distance between centrosome fragments in HCT116 cells after treatments as shown. While centrosome fragments moved closer together with increased concentrations of paclitaxel, they moved further apart with increased concentrations of C75. […] FIG. 3E) is a line graph showing the percentage of mitotic HeLa or HFF1 cells treated with a range of nocodazole concentrations+/−C75 as indicated. The bars indicate standard deviation. […]
C75 was also tested for efficacy in different cancer cell lines. […] To further assess the role of C75 in affecting centrosomes, HeLa cells were treated with C75 for a short period of time (5 minutes), then C75 was removed and the cells were analyzed for spindle phenotypes (schematic in FIG. 2D). […]

IC50 [1]: 845 nM
IC50 [2]: 4200 nM
IC50 [3]: 750 nM
IC50 [4]: 2460 nM
SMILES: O=S(=O)(c1cccs1)N1Cc2ccccc2-c2sccc21 [Compound C87]
IC50 [5]: 539 nM

IC50 [1]: 197 nM
IC50 [4]: 1020 nM
SMILES: Cc1ccc(S(=O)(=O)N2Cc3ccccc3-c3sccc32)cc1 [Compound C91]
efficacy (effect on viability) in cancer cells vs. non-cancer cells [1]: higher efficacy
IC50 [6]: 920 nM

SMILES: COc1ccc(S(=O)(=O)N2Cc3ccccc3-c3sc(I)cc32)cc1 [Compound C207]
efficacy (effect on viability) in cancer cells vs. non-cancer cells [1]: higher efficacy

SMILES: COc1cc2c(c(OC)c1OC)-c1ccc(OC)c(=O)cc1[C@@H](NC(C)=O)CC2 [colchicine, reference compound]
spindle phenotype at lower concentrations (HeLa cells; HeLa, 8 hours, 30 nM colchicine or 300 nM C75): bipolar spindles with less robust microtubules
spindle phenotype at higher concentrations (HeLa cells; HeLa, 8 hours, 40 or 50 nM colchicine, 400 or 500 nM C75): fragmented spindles, but only after extensive loss of microtubules

SMILES: COC(=O)Nc1nc2ccc(C(=O)c3cccs3)cc2[nH]1 [nocodazole, reference compound]
spindle phenotype after drug wash-out (HeLa cells; metaphase HeLa, 5 minutes treatment, washed out, imaged after 40 minutes): bipolar spindles reformed
spindle phenotype, drugs alone vs. together (HeLa cells; metaphase HeLa, nocodazole or C75 or both, 20 minutes): bipolar spindles with weak microtubules

SMILES: CC(=O)O[C@H]1C(=O)[C@@]2(C)[C@H]([C@H](OC(=O)c3ccccc3)[C@]3(O)C[C@H](OC(=O)[C@H](O)[C@@H](NC(=O)c4ccccc4)c4ccccc4)C(C)=C1C3(C)C)[C@]1(OC(C)=O)CO[C@@H]1C[C@@H]2O [paclitaxel, reference compound]
change of centrosome fragment distance with increased paclitaxel concentration (HCT116 cells): significant decrease in fragment distance
